Measured values from US20100022572A1, “NOVEL SPIRO COMPOUND AND MEDICINE COMPRISING THE SAME” (KOWA COMPANY, LTD., priority 2008, published 2010).

What was measured:
[1] = biological target: T1, human 11β-HSD2 (Homo sapiens, UniProt P80365); experiment: Assay of enzyme inhibitory activity, human 11β-HSD2 (lysate of stably expressing HEK293 cells, cortisol ELISA); type: biochemical; details: Table 1; human 11β-HSD2, cell lysate, 100 nmol/L substrate, 37° C. 1 hour
T1 construct: The obtained PCR products of about 0.9 kbp, 1.2 kbp, and 0.9 kbp were subcloned into an expression vector pcDNA3.1+/Zeo; made in house
T1 sequence (P80365 1-405): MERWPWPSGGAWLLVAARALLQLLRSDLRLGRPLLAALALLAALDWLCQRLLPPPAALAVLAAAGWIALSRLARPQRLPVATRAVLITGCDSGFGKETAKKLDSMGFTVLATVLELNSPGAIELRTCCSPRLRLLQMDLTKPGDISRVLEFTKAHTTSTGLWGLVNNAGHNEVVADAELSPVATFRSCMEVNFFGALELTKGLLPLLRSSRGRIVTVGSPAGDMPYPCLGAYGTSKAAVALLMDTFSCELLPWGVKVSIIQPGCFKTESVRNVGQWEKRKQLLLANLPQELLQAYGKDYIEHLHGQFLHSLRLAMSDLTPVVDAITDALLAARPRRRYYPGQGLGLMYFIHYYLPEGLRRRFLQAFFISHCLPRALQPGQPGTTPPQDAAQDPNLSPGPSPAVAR
Experimental: (§1) Human 11β-HSD1-, human 11β-HSD2- and mouse 11β-HSD1-inhibitory effect • 1. Human 11β-HSD1-, Human 11β-HSD2- and Mouse 11β-HSD1-Gene Clonings and Establishment of Stably Expressing Cells
(§2) Human 11β-HSD1-, human 11β-HSD2-, and mouse 11β-HSD1-gene clonings were conducted using as a template a reverse transcription product of human-liver RNA, human-kidney RNA (CELL APPLICATIONS), and mouse-kidney RNA respectively, by means of PCR cloning with reference to nucleotide sequences of Genbank Accession Nos. NM_005525, NM_000196, and NM_008288. The obtained PCR products of about 0.9 kbp, 1.2 kbp, and 0.9 kbp were subcloned into an expression vector pcDNA3.1+/Zeo (Invitrogen).
(§3) Human 11β-HSD1- and human 11β-HSD2-expressing vectors were transfected into human kidney-derived cell line, HEK293 cells, using a transfection reagent, jet PEI (Funakoshi). Mouse 11β-HSD1 was transfected to Chinese hamster ovary-derived cell line, CHO-K1 cells. Selection was conducted with 200-400 μg/mL of zeocine (Invitrogen) to provide stably expressing-cell clones. The stably expressing cells were suspended in buffer solution A (20 mmol/L Tris-HCl, pH 7.4, 250 mmol/L sucrose, 1 mmol/L EGTA, 1 mmol/L EDTA, 1 mmol/L MgCl2), sonicated, and then stored at −80° C. • 2. Assay of Enzyme Inhibitory Activity
(§4) An enzymatic reaction was conducted using a polystyrene 96-well plate. Each well was added with 1 μL of a test agent dissolved in DMSO and then diluted (0.003 to 3 mmol/L), and further added with 10 μL of cell lysate diluted to a concentration of 0.1 mg/mL to 0.4 mg/mL. Next, 90 μL of buffer solution A containing substrate (100 nmol/L cortisone or cortisol) and coenzyme (400 μmol/L NADPH or NAD+) was added and the mixture was incubated at 37° C. for 1 hour. The enzymatic reaction was stopped by treating at 95° C. for 3 minutes. Cortisol that was present in the reaction solution was determined by a competitive ELISA shown below.
Anti-rabbit IgG antibody (Chemi-con) diluted to 2 μg/mL with carbonate buffer solution (pH 9.6) was added in 100 μL each to a 96-well immuno plate (Nunc) and immobilized by an incubation at 4° C. overnight. 50 μL of enzymatic reaction solution was put onto the plates, and further, anti-cortisol antibody (Cosmo Bio) and HRP-labeled cortisol (Cosmo Bio), diluted with buffer solution B (25 mmol/L Tris-HCl pH 7.4, 137 mmol/L NaCl, 2.68 mmol/L KCl), were added in 50 μL respectively and incubated at 4° C. overnight. After washed three times with buffer solution B containing 0.05% Tween 20, the plates were allowed to develop color by adding 100 μL of color reagent, TMB (Moss). The color reaction was stopped by 25 μL of 1 mol/L sulfuric acid and the absorbance was determined at 450 nm with a microplate reader (Molecular Device, VersaMax). […]

[2] = biological target: T2, human 11β-HSD1 (Homo sapiens, UniProt P28845); experiment: Assay of enzyme inhibitory activity, human 11β-HSD1 (lysate of stably expressing HEK293 cells, cortisol ELISA); type: biochemical; details: Table 1; human 11β-HSD1, cell lysate, 100 nmol/L substrate, 37° C. 1 hour
T2 construct: The obtained PCR products of about 0.9 kbp, 1.2 kbp, and 0.9 kbp were subcloned into an expression vector pcDNA3.1+/Zeo; made in house
T2 sequence (P28845 whole entry): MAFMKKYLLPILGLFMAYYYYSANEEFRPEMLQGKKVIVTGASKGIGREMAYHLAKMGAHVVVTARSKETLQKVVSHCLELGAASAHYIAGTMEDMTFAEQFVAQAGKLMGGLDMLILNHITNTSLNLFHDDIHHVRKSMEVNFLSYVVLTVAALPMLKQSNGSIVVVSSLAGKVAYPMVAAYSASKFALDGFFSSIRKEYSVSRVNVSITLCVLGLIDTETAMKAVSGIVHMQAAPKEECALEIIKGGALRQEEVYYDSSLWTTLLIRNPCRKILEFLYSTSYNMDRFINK
Experimental: as §1, §2, §3, §4
Anti-rabbit IgG antibody (Chemi-con) diluted to 2 μg/mL with carbonate buffer solution (pH 9.6) was added in 100 μL each to a 96-well immuno plate (Nunc) and immobilized by an incubation at 4° C. overnight. 50 μL of enzymatic reaction solution was put onto the plates, and further, anti-cortisol antibody (Cosmo Bio) and HRP-labeled cortisol (Cosmo Bio), diluted with buffer solution B (25 mmol/L Tris-HCl pH 7.4, 137 mmol/L NaCl, 2.68 mmol/L KCl), were added in 50 μL respectively and incubated at 4° C. overnight. After washed three times with buffer solution B containing 0.05% Tween 20, the plates were allowed to develop color by adding 100 μL of color reagent, TMB (Moss). The color reaction was stopped by 25 μL of 1 mol/L sulfuric acid and the absorbance was determined at 450 nm with a microplate reader (Molecular Device, VersaMax).
The values of human 11β-HSD1, human 11β-HSD2, and mouse 11β-HSD1 activities were subtracted from 100, and the resultant values were regarded as the respective 11β-HSD inhibition rates of example compounds. For each example compound, the value of 50% inhibitory concentration (IC50) was calculated from 11β-HSD inhibition rates at plural concentrations, for 11β-HSD1 and activities.

| IC50 [1] [µM] | IC50 [2] [µM] | SMILES |
| --- | --- | --- |
| > 30 | 0.11 | O=C(COc1ccccc1I)N1CCC2(C=Cc3ccccc32)CC1 [Example 4, 2-(2-iodophenoxy)-1-[spiro(indene-1,4′-piperidine)-1′-yl]ethanone] |
|  | 0.23 | O=C(COc1ccccc1C(F)(F)F)N1CCC2(CC1)c1ccccc1CC2O (centres unmarked) [Example 11, 1-[2-hydroxy-2,3-dihydrospiro(indene-1,4′-piperidine)-1′-yl]-2-[2-(trifluoromethyl)phenoxy]ethanone] |
|  | 0.088 | O=C(COc1ccccc1C(F)(F)F)N1CCC2(CC1)C(C1CC1)=Cc1ccccc12 [Example 20, 1-[2-cyclopropylspiro(indene-1,4′-piperidine)-1′-yl]-2-[2-(trifluoromethyl)phenoxy]ethanone] |
|  | 0.049 | O=C(COc1ccccc1C(F)(F)F)N1CCC2(CC1)C(Br)=Cc1ccccc12 [Example 23, 1-[2-bromospiro(indene-1,4′-piperidine)-1′-yl]-2-[2-(trifluoromethyl)phenoxy]ethanone] |
|  | 0.043 | CC1=Cc2ccccc2C12CCN(C(=O)COc1ccccc1C(F)(F)F)CC2 [Example 16, 1-[2-methylspiro(indene-1,4′-piperidine)-1′-yl]-2-[2-(trifluoromethyl)phenoxy]ethanone] |
|  | 1 | O=C1CC2(CCN(C(=O)COc3ccccc3C(F)(F)F)CC2)c2ccccc21 [Example 13] |
|  | 0.03 | O=C(COc1ccccc1C(F)(F)F)N1CCC2(CC1)C(Cl)=Cc1ccccc12 [Example 22, 1-[2-chlorospiro(indene-1,4′-piperidine)-1′-yl]-2-[2-(trifluoromethyl)phenoxy]ethanone] |
|  | 0.066 | CC1=CC2(CCN(C(=O)COc3ccccc3C(F)(F)F)CC2)c2ccccc21 [Example 24, 1-[3-methylspiro(indene-1,4′-piperidine)-1′-yl]-2-[2-(trifluoromethyl)phenoxy]ethanone] |
|  | 0.025 | O=C(COc1ccccc1C(F)(F)F)N1CCC2(CCc3ccccc32)CC1 [Example 10, 1-[2,3-dihydrospiro(indene-1,4′-piperidine)-1′-yl]-2-[2-(trifluoromethyl)phenoxy]ethanone] |
| > 30 | 0.029 | O=C(COc1ccccc1C(F)(F)F)N1CCC2(C=Cc3ccccc32)CC1 [Example 1, 1-[spiro(indene-1,4′-piperidine)-1′-yl]-2-[2-(trifluoromethyl)phenoxy]ethanone] |
| > 30 | 0.077 | O=C(COc1ccccc1C(F)(F)F)N1CCC2(CC1)C(=O)Cc1ccccc12 [Example 12, 1′-[2-[2-(trifluoromethyl)phenoxy]acetyl]spiro(indene-1,4′-piperidine)-2(3H)-one] |
|  | 0.048 | CCC1=Cc2ccccc2C12CCN(C(=O)COc1ccccc1C(F)(F)F)CC2 [Example 17, 1-[2-ethylspiro(indene-1,4′-piperidine)-1′-yl]-2-[2-(trifluoromethyl)phenoxy]ethanone] |
| > 30 | 0.72 | CCc1ccccc1OCC(=O)N1CCC2(C=Cc3ccccc32)CC1 [Example 3, 2-(2-ethylphenoxy)-1-[spiro(indene-1,4′-piperidine)-1′-yl]ethanone] |
|  | 0.34 | CC(C)C1=Cc2ccccc2C12CCN(C(=O)COc1ccccc1C(F)(F)F)CC2 [Example 19, 1-[2-isopropylspiro(indene-1,4′-piperidine)-1′-yl]-2-[2-(trifluoromethyl)phenoxy]ethanone] |
|  | 0.12 | CC1Cc2ccccc2C12CCN(C(=O)COc1ccccc1C(F)(F)F)CC2 (centres unmarked) [Example 25, 1-[2-methyl-2,3-dihydrospiro(indene-1,4′-piperidine)-1′-yl]-2-[2-(trifluoromethyl)phenoxy]ethanone] |
|  | 0.24 | CCCC1=Cc2ccccc2C12CCN(C(=O)COc1ccccc1C(F)(F)F)CC2 [Example 18, 1-[2-propylspiro(indene-1,4′-piperidine)-1′-yl]-2-[2-(trifluoromethyl)phenoxy]ethanone] |
